Where two headings read alike, the source gives them in different places.
Experiments:
[1] = system: human small cell lung cancer cell lines (SCLC-21H); assay: MTS cytotoxicity on SCLC-21H cells; format: cell-based; details: for Inhibition rate (human small cell lung cancer SCLC-21H) / inhibition at 50 µM: 50 μM, 72 h; for IC50: read-out: Cytotoxicity on cell line SCLC (IC50); for inhibition at 50 µM: read-out: Inhibition rate (human small cell lung cancer SCLC-21H)
Procedure: (§1) The following was a study of the cytotoxicity study of compound of 2-(substituted phenylhetero)aromatic formic acid of formula (I) and its derivatives as FTO inhibitors on solid tumors including human small cell lung cancer cell lines (SCLC-21H), human bone marrow rhabdomyosarcoma cell line (RH30) and pancreatic cancer cell Line (KP3):
(§2) SCLC-21H, RH30 and KP3 solid tumor cell lines were cultivated separately, and seeded at 5000 cells per well in 96 well plates. The cells were cultured until the cells were adherent, and different compounds were added and the cultivation was continued for 72 hours. 10 uL of MTS solution was directly added and the mixture was incubated for 4 h, and the absorbance was measured at 490 nm. The inhibition rate was calculated by using the DMSO group as a control.

[2] = system: human bone marrow rhabdomyosarcoma cell line (RH30); assay: MTS cytotoxicity on RH30 cells; format: cell-based; details: for Inhibition rate (human bone marrow rhabdomyosarcoma cell RH30) / inhibition at 50 µM: 50 μM, 72 h; for inhibition at 50 µM: read-out: Inhibition rate (human bone marrow rhabdomyosarcoma cell RH30)
Procedure: as §1, §2

[3] = system: pancreatic cancer cell Line (KP3); assay: MTS cytotoxicity on KP3 cells; format: cell-based
Procedure: as §1, §2

FTO = FTO (Homo sapiens (Human), UniProt Q9C0B1); assay: FTO enzyme inhibition (m6A dsDNA substrate, DpnII digestion, gel readout); format: biochemical; details: for Inhibition rate: in vitro inhibition rate on FTO, compound at 50 μM; for inhibition at 50 µM: read-out: Inhibition rate
FTO, sequence (Q9C0B1 whole entry): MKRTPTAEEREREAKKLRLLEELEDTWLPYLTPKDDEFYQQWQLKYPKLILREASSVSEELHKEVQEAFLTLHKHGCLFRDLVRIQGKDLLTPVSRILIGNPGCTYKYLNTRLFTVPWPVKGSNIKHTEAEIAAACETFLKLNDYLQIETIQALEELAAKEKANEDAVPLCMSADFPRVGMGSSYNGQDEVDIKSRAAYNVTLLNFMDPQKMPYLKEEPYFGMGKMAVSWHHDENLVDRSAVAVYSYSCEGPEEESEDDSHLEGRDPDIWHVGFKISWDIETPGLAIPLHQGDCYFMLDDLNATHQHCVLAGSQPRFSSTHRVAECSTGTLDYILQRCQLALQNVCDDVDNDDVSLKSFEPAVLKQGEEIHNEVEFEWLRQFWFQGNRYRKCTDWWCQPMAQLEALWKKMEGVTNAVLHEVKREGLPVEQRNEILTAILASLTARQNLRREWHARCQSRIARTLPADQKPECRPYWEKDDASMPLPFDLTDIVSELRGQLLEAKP
Procedure: High purity FTO protein was obtained by nickel column affinity chromatography purification.
After incubation at room temperature for 2 hrs, the reaction system was then slowly heated to 65° C. to inactivate, and 1 μM 39 nt of antisense strand DNA was added to anneal, thereby forming double strands. […] After Gel-Red dyeing, photos were taken with gel imaging system. The obtained band was subjected to gray scale reading to obtain inhibition rate.

Structure (SMILES) | Inhibition rate (FTO) | Inhibition rate (human small cell lung cancer SCLC-21H) [1] | IC50 [2] | Inhibition rate (human bone marrow rhabdomyosarcoma cell RH30) [2] | IC50 [3] | also measured
CCN(CC)CCNC(=O)c1ccccc1Nc1c(Cl)cc(-c2c(C)noc2C)cc1Cl [Compound 79] | – | 80% | 2.6 µM | 79% | 2.6 µM | IC50 [1]: < 1 µM
O=C(O)c1ccccc1Nc1c(F)cc(-c2ccncc2)cc1F [Compound 37] | 31% | 60% | – | 21% | – | –
Cc1n[nH]cc1-c1cc(Cl)c(Nc2ccccc2C(=O)NO)c(Cl)c1 [Compound 31] | 70% | 75% | 3.6 µM | 70% | 6.2 µM | IC50 (FTO): < 5 µM; IC50 [1]: 7.2 µM
CCN(CC)CCNC(=O)c1ccccc1Nc1c(Cl)cc(-c2cc(F)cc(F)c2)cc1Cl [Compound 83] | – | – | 4.7 µM | – | 4.7 µM | –
Cc1n[nH]c(C)c1-c1cc(Cl)c(Nc2ccccc2C(=O)NO)c(Cl)c1 [Compound 32] | – | 70% | 5.3 µM | 63% | 5.6 µM | IC50 [1]: 2.1 µM
COc1cc(-c2cc[nH]n2)cc(OC)c1Nc1ccccc1C(=O)O [Compound 42] | 79% | 33% | – | 33% | – | –
CCN(CC)CCNC(=O)c1ccccc1Nc1c(Cl)cc(-c2cn[nH]c2)cc1Cl [Compound 81] | 67% | 83% | 1.3 µM | 80% | < 1 µM | IC50 [1]: 9.2 µM
O=C(O)c1ccccc1Nc1cc(F)c(-c2ccncc2)c(F)c1 [Compound 49] | 100% | 20% | – | 51% | – | –
Cc1noc(C)c1-c1cc(Cl)c(Nc2ccccc2C(=O)NO)c(Cl)c1 [Compound 25] | – | – | – | – | – | IC50 (FTO): < 1 µM; inhibition at 50 µM (FTO): 46%; inhibition at 50 µM ([1]; Homo sapiens, SCLC-21H): 78%; IC50 ([1]; Homo sapiens, SCLC-21H): 2.4 µM; IC50 ([2]; Homo sapiens, Rh30): 2.9 µM; inhibition at 50 µM ([2]; Homo sapiens, Rh30): 75%; IC50 ([3]; Pancreatic cancer cell): 2.9 µM
Cc1noc(C)c1-c1cc(Cl)c(Nc2ccccc2C(=O)OCOC(=O)C(C)(C)C)c(Cl)c1 [Compound 87] | – | – | – | – | – | inhibition at 50 µM (FTO): 31%; inhibition at 50 µM ([1]; Homo sapiens, SCLC-21H): 26%; inhibition at 50 µM ([2]; Homo sapiens, Rh30): 28%
O=C(NO)c1ccccc1Nc1c(Cl)cc(-c2cn[nH]c2)cc1Cl [Compound 33] | 63% | 83% | 4.1 µM | 86% | 2.2 µM | IC50 (FTO): < 1 µM; IC50 [1]: 7.1 µM
O=C(O)c1ccccc1Nc1c(Cl)cc(-c2ccncc2)cc1Cl [Compound 5] | – | – | – | – | – | IC50 (FTO): < 5 µM; inhibition at 50 µM ([1]; Homo sapiens, SCLC-21H): 55%; inhibition at 50 µM ([2]; Homo sapiens, Rh30): 29%
Cc1cc(-c2ccncc2)cc(C)c1Nc1ccccc1C(=O)O [Compound 46] | 100% | 66% | – | 41% | – | –
Cc1noc(C)c1-c1cc(Cl)c(Nc2ccccc2-c2noc(=O)[nH]2)c(Cl)c1 [Compound 27] | – | 14% | – | 50% | – | IC50 (FTO): < 1 µM
O=C(O)c1ccccc1Nc1c(Cl)cc(N2CCOCC2)cc1Cl [Compound 55] | 100% | – | – | – | – | IC50 (FTO): < 5 µM
CCN(CC)CCNC(=O)c1cccnc1Nc1c(Cl)cc(-c2c(C)noc2C)cc1Cl [Compound 78] | – | – | 14.7 µM | – | 8.7 µM | IC50 [1]: 5.1 µM
O=C(O)c1ccccc1Nc1c(Cl)cc(-c2ccn[nH]2)cc1Cl [Compound 2] | – | – | – | – | – | IC50 (FTO): < 5 µM; inhibition at 50 µM (FTO): 80%
Cc1noc(C)c1-c1cc(Cl)c(Nc2ccccc2C(=O)OCc2oc(=O)oc2C)c(Cl)c1 [Compound 88] | – | – | – | – | – | inhibition at 50 µM (FTO): 34%
O=C(O)c1ccccc1Nc1c(F)cc(-c2cn[nH]c2)cc1F [Compound 36] | 28% | – | – | – | – | –
O=C(O)c1cc(F)ccc1Nc1c(Cl)cc(-c2cn[nH]c2)cc1Cl [Compound 73] | 84% | – | – | – | – | –

Further lines, with some results ahead:

Inhibition rate (FTO) | Structure (SMILES) | Inhibition rate (human small cell lung cancer SCLC-21H) [1] | IC50 [2] | Inhibition rate (human bone marrow rhabdomyosarcoma cell RH30) [2] | IC50 [3] | also measured
88% | Cc1noc(C)c1-c1cc(Cl)c(Nc2nccnc2C(=O)O)c(Cl)c1 [Compound 65] | 52% | – | 42% | – | –
100% | Cc1n[nH]cc1-c1cc(Cl)c(Nc2ncccc2C(=O)O)c(Cl)c1 [Compound 57] | 47% | – | 40% | – | –
81% | O=C(O)c1cc(F)ccc1Nc1c(Cl)cc(-c2ccncc2)cc1Cl [Compound 70] | 46% | – | 42% | – | –
29% | Cc1noc(C)c1-c1cc(Cl)c(Nc2ccccc2C(=O)NCCCN2CCOCC2)c(Cl)c1 [Compound 82] | – | 1.6 µM | – | < 1 µM | IC50 [1]: 9.9 µM
29% | Cc1noc(C)c1-c1cc(Cl)c(Nc2ccccc2C(=O)NCCN2CCN(C)CC2)c(Cl)c1 [Compound 80] | 86% | 2 µM | 82% | 2 µM | IC50 [1]: < 1 µM
75% | Cc1noc(C)c1-c1cc(Cl)c(Nc2ccc([N+](=O)[O-])cc2C(=O)O)c(Cl)c1 [Compound 74] | 38% | – | 32% | – | –
35% | Cc1noc(C)c1-c1cc(Cl)c(Nc2ncccc2C(=O)NO)c(Cl)c1 [Compound 63] | 70% | – | 68% | – | –
68% | O=C(NO)c1nccnc1Nc1c(Cl)cc(-c2cn[nH]c2)cc1Cl [Compound 64] | 24% | – | 30% | – | –
100% | O=C(O)c1cccnc1Nc1c(Cl)cc(-c2ccoc2)cc1Cl [Compound 59] | 28% | – | 57% | – | –
28% | O=C(NO)c1cccnc1Nc1c(Cl)cc(-c2ccncc2)cc1Cl [Compound 62] | 84% | – | 87% | – | –
100% | Cc1cc(-c2c(C)noc2C)cc(C)c1Nc1ccccc1C(=O)O [Compound 44] | 47% | – | 24% | – | –
90% | Cc1noc(C)c1-c1cc(F)c(Nc2ccccc2C(=O)NO)c(F)c1 [Compound 39] | – | 3.2 µM | – | 2.6 µM | IC50 (FTO): < 1 µM; IC50 [1]: 7.3 µM
58% | Cc1noc(C)c1-c1cc(Cl)c(Nc2ccc(N)cc2C(=O)O)c(Cl)c1 [Compound 75] | 60% | – | 51% | – | –
100% | Cc1noc(C)c1-c1cc(F)c(Nc2ccccc2C(=O)O)c(F)c1 [Compound 38] | – | 9.2 µM | – | < 1 µM | IC50 (FTO): < 1 µM; IC50 [1]: 4.2 µM
